# Measured values from patent US7332476B2, “Pyridyl substituted ketolide antibiotics” (Novartis AG, priority 2003, dated 2008).
# Legend:
# [1] = system: Streptococcus pneumoniae Stpn_280-962; experiment: MIC, broth microdilution (NCCLS); format: cell-based; design: MIC, strain ID O: unit not given beside the values; details: for MIC: Table 10, Strain ID O (Table 8): Streptococcus pneumoniae Stpn_280-962
# Procedure, shortened: (§1)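 Broth microdilution per NCCLS in cation-adjusted Mueller-Hinton broth, with 2-5% lysed horse blood added for S. pneumoniae. Inoculum 3×10^5–7×10^5 CFU/ml, 2-fold drug dilutions, 18-24 h at 35° C; S. pneumoniae under 5-10% CO2, others ambient air. MIC = lowest concentration preventing visible growth.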
# [2] = system: Streptococcus pneumoniae Stpn_49619; experiment: MIC, broth microdilution (NCCLS); format: cell-based; design: MIC, strain ID M: unit not given beside the values; details: for MIC: Table 10, Strain ID M (Table 8): Streptococcus pneumoniae Stpn_49619
# Procedure, shortened: as §1
# [3] = In vivo pharmacokinetic study in rats, whole lung (IV and PO); details: male, Sprague-Dawley, 5 mg/kg, rat; for half-life: IV, whole lung, read-out: t1/2, IV Lung (converted); for Kp: lung/plasma, iv, read-out: L/P ratio, IV
# Experimental: (§2) Animal Models. A total of 54 male Sprague-Dawley rats, weighing 200 grams in average, were evaluated for pharmacokinetic studies of representative pyridyl substituted ketolides. Rats were under overnight food restriction and received water ad libitum. Rats were acclimated for approximately 5 days before antibiotic administration.
# (§3) Antibiotic Administration. Rats were given bolus administration through (IV) and oral (PO) routes. Representative pyridyl substituted ketolides and telithromycin, for comparison, were diluted in 0.85% saline to a concentration of 15.0 mg/ml, and the resulting pH was adjusted using 1N acetic acid until the compound was in solution. Approximately 200 microliters of the compound solution was administered to the rats. The target dose for IV and PO administration was 5 mg/kg and 15 mg/kg, respectively.
# (§4) Sample Collection. Plasma and whole lung samples were collected from the rats. Plasma samples were obtained from blood samples by centrifugation at 3000 RPM for 10 min. Heparin was added in the plasma as an anticoagulant. Whole lung samples were homogenized in deionized water. Samples were stored at −80° C. A total of 9 time points were collected in triplicate at 0.083, 0.25, 0.5, 1, 2, 4, 6, 8, and 24 hrs. Ketolide concentrations in plasma and lung were determined by well-established non-GLP LC-MS-MS methods. PK parameters were estimated from the raw bioanalytical data using WinNolin software (Version 4.0, Pharsight Corporation, CA). […] All representative compounds were compared to telithromycin.
# [4] = system: Streptococcus pneumoniae Stpn_Mef 5654; experiment: MIC, broth microdilution (NCCLS); format: cell-based; design: MIC, strain ID R: unit not given beside the values; details: for MIC: Table 10, Strain ID P (Table 8): Streptococcus pneumoniae Stpn_Mef 5654, in µg/mL (unit assumed)
# Procedure, shortened: as §1
# [5] = system: Staphylococcus aureus Stau_33591; experiment: MIC, broth microdilution (NCCLS); format: cell-based; details: unit assumed; for MIC: Table 10, Strain ID B (Table 8): Staphylococcus aureus Stau_33591
# Procedure, shortened: (§5)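 Following NCCLS guidance, each isolate at 3×10^5–7×10^5 CFU/ml met serially halved compound concentrations in cation-adjusted Mueller-Hinton broth or Haemophilus Test Medium. The endpoint was the lowest concentration giving no visible growth after 18-24 hours at 35° C.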
# [6] = system: Haemophilus influenzae Hain_2762; experiment: MIC, broth microdilution (NCCLS); format: cell-based; details: in µg/mL (unit assumed); for MIC: Table 10, Strain ID L (Table 8): Haemophilus influenzae Hain_2762
# Procedure, shortened: as §5
# [7] = system: Haemophilus influenzae Hain_960820544-3; experiment: MIC, broth microdilution (NCCLS); format: cell-based; details: in µg/mL (unit assumed); for MIC: Table 10, Strain ID J (Table 8): Haemophilus influenzae Hain_960820544-3
# Procedure, shortened: as §5
# [8] = system: Haemophilus influenzae Hain_960730503-3; experiment: MIC, broth microdilution (NCCLS); format: cell-based; details: in µg/mL (unit assumed); for MIC: Table 10, Strain ID I (Table 8): Haemophilus influenzae Hain_960730503-3
# Procedure, shortened: as §5
# [9] = system: Haemophilus influenzae Hain_953460299-3; experiment: MIC, broth microdilution (NCCLS); format: cell-based; details: in µg/mL (unit assumed); for MIC: Table 10, Strain ID K (Table 8): Haemophilus influenzae Hain_953460299-3
# Procedure, shortened: as §5
# [10] = system: Enterococcus faecalis Enfa_bc 11148-2; experiment: MIC, broth microdilution (NCCLS); format: cell-based; details: in µg/mL (unit assumed); for MIC: Table 10, Strain ID F (Table 8): Enterococcus faecalis Enfa_bc 11148-2
# Procedure, shortened: as §5
# [11] = In vivo pharmacokinetic study in rats, plasma (IV and PO); design: species or system Sprague-Dawley rats; details: rat; for half-life / AUC / clearance / Vd: male, Sprague-Dawley; for half-life: 5 mg/kg, read-out: t1/2, IV Plasma (converted); for clearance / Vd: intravenous; for Vd: read-out: Vss; for F, PO: PO = 15 mg/kg
# Experimental: as §2, §3, §4
# [12] = system: Haemophilus influenzae Hain_49247; experiment: MIC, broth microdilution (NCCLS); format: cell-based; details: unit assumed; for MIC: Table 10, Strain ID H (Table 8): Haemophilus influenzae Hain_49247
# [13] = system: Streptococcus pyogenes Stpy_8668; experiment: MIC, broth microdilution (NCCLS); format: cell-based; design: MIC, strain ID G: unit not given beside the values; details: for MIC: Table 10, Strain ID G (Table 8): Streptococcus pyogenes Stpy_8668
# Procedure, shortened: as §1
# [14] = plasma, IV, dose IV = 5 mg/kg (Compound XIV: IV = 15)
compound,measurement,setting,value
CC[C@H]1OC(=O)[C@@](C)(F)C(=O)[C@H](C)[C@@H](OC2O[C@H](C)C[C@H](N(C)C)[C@H]2O)[C@@](C)(OC)C[C@@H](C)C(=O)[C@H](C)[C@H]2N(CCCCn3cnc(-c4ccc(C)nc4)c3)C(=O)O[C@]12CC (stereo partly drawn) [XIV],MIC,[1],=0.05
same,MIC,[2],=0.05
same,half-life,[3],3.6 h
same,Kp,[3],83
same,MIC,[4],0.78
same,MIC,[5],> 50 µg/mL
same,MIC,[6],1.56
same,MIC,[7],6.25
same,MIC,[8],6.25
same,MIC,[9],6.25
same,MIC,[10],1.56
same,half-life,"[11]; IV, plasma",2.3 h
same,AUC,[11]; [14],3300 ng·h/mL
same,clearance,[11]; plasma,70 mL/min/kg
same,Vd,[11]; plasma,13 L/kg
same,"F, PO",[11],43%
same,MIC,[12],6.25 µg/mL
same,MIC,[13],=0.05
"CC[C@H]1OC(=O)[C@H](C)C(=O)[C@H](C)[C@@H](O[C@@H]2O[C@H](C)C[C@H](N(C)C)[C@H]2O)[C@](C)(OC)C[C@@H](C)C(=O)[C@H](C)[C@H]2N(CCCCn3cnc(-c4cccnc4)c3)C(=O)O[C@]12C [Telithromycin, telithromycin, reference compound]",MIC,[1],=0.05
same,"MIC, strain ID O","[1]; strain ID O, broth microdilution",=0.05
same,MIC,[2],=0.05
same,"MIC, strain ID M","[2]; strain ID M, broth microdilution",=0.05
same,half-life,[3],1.3 h
same,Kp,[3],16
same,MIC,[4],0.2-0.78
same,"MIC, strain ID R","[4]; strain ID R, broth microdilution",=0.1
same,MIC,[5],> 50 µg/mL
same,"MIC, strain ID B","[5]; strain ID B, broth microdilution",> 50 µg/mL
same,MIC,[6],0.78-1.56
same,"MIC, strain ID L","[6]; strain ID L, broth microdilution",0.78-1.56
same,MIC,[7],3.13-6.25
same,"MIC, strain ID J","[7]; strain ID J, broth microdilution",3.13-6.25
same,MIC,[8],3.13-6.25
same,"MIC, strain ID I","[8]; strain ID I, broth microdilution",3.13-6.25
same,MIC,[9],3.13-6.25
same,"MIC, strain ID K","[9]; strain ID K, broth microdilution",3.13-6.25
same,MIC,[10],0.4-0.78
same,"MIC, strain ID F","[10]; strain ID F, broth microdilution",0.4-0.78
same,"AUC, IV","[11]; IV, dose IV = 5 mg/kg (Compound XIV: IV = 15)",2500 ng·h/mL
same,"t1/2, IV Plasma","[11]; IV, plasma",1.0 h
same,"F, PO",[11],11%
same,MIC,[12],3.13 µg/mL
same,"MIC, strain ID H","[12]; strain ID H, broth microdilution",3.13 µg/mL
same,MIC,[13],=0.05
same,"MIC, strain ID G","[13]; strain ID G, broth microdilution",=0.05
C=C[C@]12OC(=O)N(CCCCn3cnc(-c4ccc(C)nc4)c3)[C@@H]1[C@@H](C)C(=O)[C@H](C)C[C@](C)(OC)[C@H](OC1O[C@H](C)C[C@H](N(C)C)[C@H]1O)[C@@H](C)C(=O)[C@@H](C)C(=O)O[C@@H]2CC (stereo partly drawn) [XVI],MIC,[1],=0.05
same,MIC,[2],=0.05
same,half-life,[3],3.4 h
same,Kp,[3],80
same,MIC,[4],0.78
same,MIC,[5],> 50 µg/mL
same,MIC,[6],1.56
same,MIC,[7],6.25
same,MIC,[8],6.25
same,MIC,[9],6.25
same,MIC,[10],0.78
same,half-life,"[11]; IV, plasma",1.6 h
same,AUC,[11]; [14],2100 ng·h/mL
same,clearance,[11]; plasma,115 mL/min/kg
same,Vd,[11]; plasma,14 L/kg
same,"F, PO",[11],35%
same,MIC,[12],6.25 µg/mL
same,MIC,[13],=0.05
C=C[C@]12OC(=O)N(CCCCn3cnc(-c4ccc(OC)nc4)c3)[C@@H]1[C@@H](C)C(=O)[C@H](C)C[C@](C)(OC)[C@H](OC1O[C@H](C)C[C@H](N(C)C)[C@H]1O)[C@@H](C)C(=O)[C@@H](C)C(=O)O[C@@H]2CC (stereo partly drawn) [XVIII],MIC,[1],=0.05
same,MIC,[2],=0.05
same,half-life,[3],3.1 h
same,Kp,[3],110
same,MIC,[4],0.78
same,MIC,[5],> 50 µg/mL
same,MIC,[6],1.56
same,MIC,[7],6.25
same,MIC,[8],6.25
same,MIC,[9],6.25
same,MIC,[10],0.78
same,half-life,"[11]; IV, plasma",1.7 h
same,AUC,[11]; [14],2600 ng·h/mL
same,clearance,[11]; plasma,91 mL/min/kg
same,Vd,[11]; plasma,11 L/kg
same,"F, PO",[11],51%
same,MIC,[12],6.25 µg/mL
same,MIC,[13],=0.05
